Reference: patent US10696693B2, “Fused imidazole derivatives as TGF-beta inhibitors” (Rigel Pharmaceuticals, Inc., priority 2014, dated 2020)
Read-outs that look alike come from different tables or passages of the source.

How the values were obtained:
GDF8 = test: AlphaScreen SureFire p-SMAD3 (Ser423/425) assay, GDF8-stimulated cells; type: cell-based; settings: Mus musculus
Text: (§1) The p-SMAD-3 (Ser423/425) SureFire® assay has been designed to measure the phosphorylation of endogenous cellular p-SMAD-3 (Ser423/425) in cell lysates and is a system for the screening of both modulators of receptor activation (e.g. agonists and antagonists) as well as agents acting intracellularly, such as small molecule inhibitors of upstream events. The assay will measure p-SMAD-3 (Ser423/425) activation by either cloned or endogenous receptors, and can be applied to primary cells.
(§2) 96-well Assay Protocol for 293FT and RMS13 adherent cells can be carried out manually or in high throughput with liquid handling robots.
(§3) The cells (80 μL of cells for 96 well plates) were plated in collagen coated tissue culture plates in RPMI or FreeStyle medium (Invitrogen) and incubated overnight. For manual analysis, 6 plates for GDF8, 6 plates for TGFβ, and optionally 6 plates for Alk5ca(ALK5 constitutively active) were used.
(§4) The compound dilution plates were prepared as follows: 12 μL of DMSO was transferred into first column of 96-well plate, and 16 μL of DMSO was transferred into columns 2-12 of the 96-well plate. 12 μL of compound solution was transferred into first column of the DMSO-containing 96-well plate. Three-fold dilution was performed up to column 10 of the DMSO-containing 96-well plate.
(§5) The plate containing cells were treated with compounds for about 10 minutes, and then ligand was added. GDF8 or TGFb was added to plates to stimulate. 293FL cells were stimulatedfor 90 minutes at 37° C.; and RMS13 cells were stimulated for 60 minutes at 37° C. The medium was then removed from the cells, and 1× Lysis Buffer (about 25 μL) was added and the plate was gently agitated on plate shaker for 5-10 minutes.
(§6) The lysate (5 μL) was then placed into 384-well shallow plates avoiding the generation of bubbles. To this, the Reaction Buffer+Activation Buffer+AlphaScreen® Acceptor beadsmixture (5 μL) was added. The plate was sealed with adhesive cover and shielded from light (e.g., with metal foil), and agitated gently on plate shaker for 2 hours at room temperature.
(§7) Dilution buffer+AlphaScreen® Donor beads (2 μL) was then added, and the plate was intubated on the plate shaker for an additional 1½ hours. After completion, the plate was read on Synergy-4 or Enspire plate reader, using AlphaScreen® pSMAD3® settings.
(§8) Representative results for inhibition of GDF8 (data=GDF pSMAD (MPC11) (μM)) and TGF-β (data=TGF-β pSMAD (MPC-11) (μM)) signaling are shown in Table 1(A=<0.05 μM, B=0.05−<0.1 μM, C=0.1−<1.0 μM, D=>1.0 μM): […]

TGF-β = test: AlphaScreen SureFire p-SMAD3 (Ser423/425) assay, TGF-β-stimulated cells; type: cell-based; settings: Mus musculus
Text: as §1, §2, §3, §4, §5, §6, §7, §8

[1] = MPC-11, p-SMAD3 (Ser423/425) AlphaScreen in cell lysate, MPC11, GDF8 stimulation, read-out: GDF8: inhibition of GDF8 signaling, GDF pSMAD (MPC11)
[2] = p-SMAD3 (Ser423/425) AlphaScreen in cell lysate, MPC-11, TGF-β stimulation, read-out: TGF-β: inhibition of TGF-β signaling, TGF-β pSMAD (MPC-11)
[3] = MPC-11, read-out: GDF8: inhibition of GDF8 signaling, GDF pSMAD (MPC11), p-SMAD3 (Ser423/425) AlphaScreen in cell lysate, GDF8 stimulation
[4] = MPC-11, read-out: TGF-β: inhibition of TGF-β signaling, TGF-β pSMAD (MPC-11), p-SMAD3 (Ser423/425) AlphaScreen in cell lysate, TGF-β stimulation

IC50 (GDF8; [1])	IC50 (TGF-β; [2])	SMILES	IC50 (GDF8; [3])	IC50 (TGF-β; [4])
50 to 100 nM	< 50 nM	O=C(O)C1Cn2c(nc(-c3cc(F)cc(F)c3F)c2-c2ccc3nccnc3c2)N1 (stereo not shown) [Compound 125, 5-(quinoxalin-6-yl)-6-(2,3,5-trifluorophenyl)-2,3-dihydro-1H-imidazo[1,2-a]imidazole-2-carboxylic acid]		
100 to 1000 nM	100 to 1000 nM	Fc1cc(F)c(F)c(-c2nc3n(c2-c2ccc4nccnc4c2)CCC3)c1 [Compound 238, 6-(2-(2,3,5-trifluorophenyl)-6,7-dihydro-5H-pyrrolo[1,2-a]imidazol-3-yl)quinoxaline]		
> 1000 nM	> 1000 nM	Cc1cc(-c2nc3n(c2-c2ccc4ncnn4c2)CCC3)cc(C)c1F [Compound 42, 6-(2-(4-fluoro-3,5-dimethylphenyl)-6,7-dihydro-5H-pyrrolo[1,2-a]imidazol-3-yl)-[1,2,4]triazolo[1,5-a]pyridine]		
100 to 1000 nM	100 to 1000 nM	Fc1ccc(-c2nc3occn3c2-c2ccc3nccnc3c2)c(F)c1F [Compound 164, 5-(quinoxalin-6-yl)-6-(2,3,4-trifluorophenyl)imidazo[2,1-b]oxazole]		
< 50 nM	50 to 100 nM	Cc1cc(F)c(F)cc1-c1nc2n(c1-c1ccc3ncc(C(N)=O)n3c1)CCC2 [Compound 52, 6-(2-(4,5-difluoro-2-methylphenyl)-6,7-dihydro-5H-pyrrolo[1,2-a]imidazol-3-yl)imidazo[1,2-a]pyridine-3-carboxamide]		
100 to 1000 nM	> 1000 nM	Fc1cc(-c2nc3n(c2-c2ccc4ncccc4c2)CCC3)cc(F)c1F [Compound 247, 6-(2-(3,4,5-trifluorophenyl)-6,7-dihydro-5H-pyrrolo[1,2-a]imidazol-3-yl)quinoline]		
50 to 100 nM	100 to 1000 nM	Fc1ccc(-c2nc3occn3c2-c2ccc3[nH]ncc3c2)c(F)c1F [Compound 160, 6-(2,3,4-trifluorophenyl)-5-(1H-indazol-5-yl)imidazo[2,1-b]oxazole]		
100 to 1000 nM	100 to 1000 nM	Fc1ccc(-c2nc3n(c2-c2ccc4[nH]ncc4c2)CCC3)cc1F [Compound 205, 5-(2-(3,4-difluorophenyl)-6,7-dihydro-5H-pyrrolo[1,2-a]imidazol-3-yl)-1H-indazole]		
100 to 1000 nM	> 1000 nM	Cc1cc(F)c(F)cc1-c1nc2n(c1-c1ccc3nccn3c1)CCC2 [Compound 32]		
> 1000 nM	> 1000 nM	Cc1ccccc1-c1nc2n(c1-c1ccc3ncccc3c1)CCC2 [Compound 307, 6-(2-(o-tolyl)-6,7-dihydro-5H-pyrrolo[1,2-a]imidazol-3-yl)quinoline]		
50 to 100 nM	100 to 1000 nM	Cc1cc(-c2nc3n(c2-c2ccc4cn[nH]c4c2)CCC3)ccc1F [Compound 177, 6-(2-(4-fluoro-3-methylphenyl)-6,7-dihydro-5H-pyrrolo[1,2-a]imidazol-3-yl)-1H-indazole]		
> 1000 nM	> 1000 nM	Cc1ccccc1-c1nc2n(c1-c1ccc3[nH]ncc3c1)CCC2 [Compound 304, 5-(2-(o-tolyl)-6,7-dihydro-5H-pyrrolo[1,2-a]imidazol-3-yl)-1H-indazole]		
> 1000 nM	> 1000 nM	CC(=O)N1CCn2c1nc(-c1cc(F)c(F)cc1F)c2-c1ccc2ncnn2c1 [Compound 104, 1-(5-([1,2,4]triazolo[1,5-a]pyridin-6-yl)-6-(2,4,5-trifluorophenyl)-2,3-dihydro-1H-imidazo[1,2-a]imidazol-1-yl)ethan-1-one]		
< 50 nM	< 50 nM	Fc1cc(F)c(-c2nc3n(c2-c2ccc4nccnc4c2)CCN3)cc1F [Compound 106, 6-(6-(2,4,5-trifluorophenyl)-2,3-dihydro-1H-imidazo[1,2-a]imidazol-5-yl)quinoxaline]		
50 to 100 nM	100 to 1000 nM	Fc1ccc(-c2nc3occn3c2-c2ccc3ncccc3c2)c(F)c1F [Compound 162, 5-(quinolin-6-yl)-6-(2,3,4-trifluorophenyl)imidazo[2,1-b]oxazole]		
< 50 nM	100 to 1000 nM	Fc1ccc(-c2nc3n(c2-c2ccc4nccn4c2)CCC3)c(F)c1 [Compound 9]		

More lines, now with the values behind:

SMILES	IC50 (GDF8; [1])	IC50 (TGF-β; [2])	IC50 (GDF8; [3])	IC50 (TGF-β; [4])
Cc1c(F)ccc(-c2nc3n(c2-c2ccc4ncccc4c2)CCC3)c1Cl [Compound 315, 6-(2-(2-chloro-4-fluoro-3-methylphenyl)-6,7-dihydro-5H-pyrrolo[1,2-a]imidazol-3-yl)quinoline]			> 1000 nM	> 1000 nM
Fc1ccc(-c2nc3occn3c2-c2ccc3ncccc3c2)cc1 [Compound 146, 5-(quinolin-6-yl)-6-(4-fluorophenyl)imidazo[2,1-b]oxazole]	100 to 1000 nM	100 to 1000 nM		
Fc1ccc(-c2nc3occn3c2-c2ccc3ncsc3c2)cc1F [Compound 135, 5-(benzo[d]thiazol-6-yl)-6-(3,4-difluorophenyl)imidazo[2,1-b]oxazole]	< 50 nM	50 to 100 nM		
Cc1ccc(F)cc1-c1nc2n(c1-c1ccc3nccnc3c1)CCC2 [Compound 302, 6-(2-(5-fluoro-2-methylphenyl)-6,7-dihydro-5H-pyrrolo[1,2-a]imidazol-3-yl)quinoxaline]			> 1000 nM	> 1000 nM
Fc1ccc(-c2nc3occn3c2-c2ccc3nccnc3c2)c(F)c1 [Compound 157, 6-(2,4-difluorophenyl)-5-(quinoxalin-6-yl)imidazo[2,1-b]oxazole]	100 to 1000 nM	100 to 1000 nM		
Fc1ccc(-c2nc3n(c2-c2ccc4cn[nH]c4c2)CCC3)cc1F [Compound 206, 6-(2-(3,4-difluorophenyl)-6,7-dihydro-5H-pyrrolo[1,2-a]imidazol-3-yl)-1H-indazole]	100 to 1000 nM	> 1000 nM		
Fc1ccc(-c2nc3occn3c2-c2ccc3ncccc3c2)cc1F [Compound 145, 5-(quinolin-6-yl)-6-(3,4-difluorophenyl)imidazo[2,1-b]oxazole]	50 to 100 nM	100 to 1000 nM		
c1ccc(-c2nc3n(c2-c2ccc4ncccc4c2)CCC3)nc1 [Compound 369, 6-(2-(pyridin-2-yl)-6,7-dihydro-5H-pyrrolo[1,2-a]imidazol-3-yl)quinoline]	< 50 nM	50 to 100 nM		
Cc1cccc(-c2nc3n(c2-c2ccc4nccnc4c2)CCC3)c1 [Compound 180, 6-(2-(m-tolyl)-6,7-dihydro-5H-pyrrolo[1,2-a]imidazol-3-yl)quinoxaline]	< 50 nM	100 to 1000 nM		
Cc1c(F)ccc(-c2nc3n(c2-c2ccc4[nH]ncc4c2)CCC3)c1F [Compound 280, 5-(2-(2,4-difluoro-3-methylphenyl)-6,7-dihydro-5H-pyrrolo[1,2-a]imidazol-3-yl)-1H-indazole]	50 to 100 nM	100 to 1000 nM		
Cc1c(F)ccc(-c2nc3n(c2-c2ccc4nccn4c2)CCC3)c1F [Compound 46, 6-(2-(2,4-difluoro-3-methylphenyl)-6,7-dihydro-5H-pyrrolo[1,2-a]imidazol-3-yl)imidazo[1,2-a]pyridine]	100 to 1000 nM	100 to 1000 nM		
Fc1ccc(-c2nc3occn3c2-c2ccc3ncsc3c2)c(F)c1 [Compound 156, 5-(benzo[d]thiazol-6-yl)-6-(2,4-difluorophenyl)imidazo[2,1-b]oxazole]	< 50 nM	50 to 100 nM		
CN(C)CCOc1cnc2ccc(-c3c(-c4cc(F)c(F)cc4F)nc4n3CCC4)cc2n1 [Compound 362, N,N-dimethyl-2-((7-(2-(2,4,5-trifluorophenyl)-6,7-dihydro-5H-pyrrolo[1,2-a]imidazol-3-yl)quinoxalin-2-yl)oxy)ethan-1-amine]			100 to 1000 nM	100 to 1000 nM
Cc1ccccc1-c1nc2n(c1-c1ccc3nccnc3c1)CCC2 [Compound 306, 6-(2-(o-tolyl)-6,7-dihydro-5H-pyrrolo[1,2-a]imidazol-3-yl)quinoxaline]	> 1000 nM	> 1000 nM		
Cc1cccc(-c2nc3n(c2-c2ccc4ncsc4c2)CCC3)n1 [Compound 364, 6-(2-(6-methylpyridin-2-yl)-6,7-dihydro-5H-pyrrolo[1,2-a]imidazol-3-yl)benzo[d]thiazole]				< 50 nM
